In data set [1] the test system is green peach aphid (Myzus persicae). Briefly: Test E: control of green peach aphid on radish plant, contact and/or systemic. It is filed as in vivo. To be noted: 144 h, sprayed at 250 ppm, visually assessed after 6 days. The source says:
For evaluating control of green peach aphid (Myzus persicae) through contact and/or systemic means, the test unit consisted of a small- open container with a 12–15-day-old radish plant inside. This was pre-infested by placing on a leaf of the test plant 30–40 aphids on a piece of leaf excised from a culture plant (cut-leaf method). The larvae moved onto the test plant as the leaf piece desiccated. After pre-infestation, the soil of the test unit was covered with a layer of sand.
(§1) Test compounds were formulated using a solution containing 10% acetone, 90% water and 300 ppm X-77® Spreader Lo-Foam Formula non-ionic surfactant containing alkylarylpolyoxyethylene, free fatty acids, glycols and isopropanol (Loveland Industries, Inc.). The formulated compounds were applied in 1 mL of liquid through a SUJ2 atomizer nozzle with ⅛ JJ custom body (Spraying Systems Co.) positioned 1.27 cm (0.5 inches) above the top of each test unit. All experimental compounds in this screen were sprayed at 250 ppm and replicated three times. After spraying of the formulated test compound, each test unit was allowed to dry for 1 hour and then a black, screened cap was placed on top. The test units were held for 6 days in a growth chamber at 19–21° C. and 50–70% relative humidity. Each test unit was then visually assessed for insect mortality.

The test system of data set [2] is cotton melon aphid (Aphis gossypii). Briefly: Test F: control of cotton melon aphid on cotton plant, contact and/or systemic. It is filed as in vivo. As to conditions: 144 h, sprayed at 250 ppm, visually rated after 6 days. How it is done: as §1
For evaluating control of cotton melon aphid (Aphis gossypii) through contact and/or systemic means, the test unit consisted of a small open container with a 6–7-day-old cotton plant inside. This was pre-infested with 30–40 aphids on a piece of leaf according to the cut-leaf method described for Test E, and the soil of the test unit was covered with a layer of sand.
Test compounds were formulated and sprayed at 250 ppm as described for Test E. The applications were replicated three times. After spraying, the test units were maintained in a growth chamber and then visually rated as described for Test E.

The test system of data set [3] is Potato Leafhopper (Empoasca fabae Harris). Briefly: Test H: control of Potato Leafhopper on Longio bean plant, contact and/or systemic. Format: in vivo. As to conditions: 144 h, sprayed at 250 ppm, post-infested with adults, visually assessed after 6 days. How it is done: as §1
For evaluating control of Potato Leafhopper (Empoasca fabae Harris) through contact and/or systemic means, the test unit consisted of a small open container with a 5–6 day old Longio bean plant (primary leaves emerged) inside. White sand was added to the top of the soil and one of the primary leaves was excised prior to application. Test compounds were formulated and sprayed at 250 ppm and replicated three times as described for Test E. After spraying, the test units were allowed to dry for 1 hour before they were post-infested with 5 Potato Leafhoppers (18 to 21 day old adults). A black, screened cap is placed on the top of the cylinder. The test units were held for 6 days in a growth chamber at 19–21° C. and 50–70% relative humidity. Each test unit was then visually assessed for insect mortality.

Data set [4] concerns Corn Planthopper (Peregrinus maidis). Briefly: Test G: control of Corn Planthopper on corn (maize) plant, contact and/or systemic. It is filed as in vivo. As to conditions: 144 h, sprayed at 250 ppm, post-infested with nymphs, visually assessed after 6 days. How it is done: as §1
For evaluating control of Corn Planthopper (Peregrinus maidis) through contact and/or systemic means, the test unit consisted of a small open container with a 3–4 day old corn (maize) plant (spike) inside. White sand was added to the top of the soil prior to application. […] Each test unit was then visually assessed for insect mortality.

The mortality is the percentage killed. A low value points to a weak lethal effect. Usually melting point stands for the temperature of the solid-liquid transition.

For the compound `CC(C)N1CN(C(=O)c2cc(Cl)nn2-c2ncccc2Cl)c2c(Cl)cc(Cl)cc2C1=O` [Compound 8, 6,8-Dichloro-1-[[3-Chloro-1-(3-Chloro-2-pyridinyl)-1H-pyrazol-5-yl]carbonyl]-2,3-dihydro-3-(1-methylethyl)-4(H)-quinazolinone], the mortality at 250 ppm in data set [1], in data set [2] and in data set [3] was not below 80% throughout.
Take `CC(C)N1CN(C(=O)c2cc(Br)nn2-c2ncccc2Cl)c2c(Cl)cc(Cl)cc2C1=O` [Compound 9, 1-[[3-Bromo-1-(3-Chloro-2-pyridinyl)-1H-pyrazol-5-yl]carbonyl]-6,8-dichloro-2,3-dihydro-3-(1-methylethyl)-4-(1H)-quinazolinone]: the mortality at 250 ppm in data set [1], in data set [2] and in data set [3] was not below 80% throughout.
`CC(C)N1CN(C(=O)c2cc(C(F)(F)F)nn2-c2ncccc2Cl)c2c(Cl)cc(Cl)cc2C1=O` [Compound 10, 6,8-Dichloro-1-[[1-(3-Chloro-2-pyridinyl)-3-(trifluoromethyl)-1H-pyrazol-5-yl]carbonyl]-2,3-dihydro-3-(1-methylethyl)-4(1H)-quinazolinone]: the mortality at 250 ppm in data set [3] is not below 80%.
`CN1CN(C(=O)c2cc(Cl)nn2-c2ncccc2Cl)c2c(Cl)cc(Cl)cc2C1=O` [Compound 11, 6-8-Dichloro-1-[[3-Chloro-1-(3-Chloro-2-pyridinyl)-1H-pyrazol-5-yl]carbonyl]-2,3-dihydro-3-methyl-4(1H)-quinazolinone]: the mortality at 250 ppm in data set [1], in data set [2] and in data set [3] was not below 80% each time.
Regarding `CN1CN(C(=O)c2cc(Br)nn2-c2ncccc2Cl)c2c(Cl)cc(Cl)cc2C1=O` [Compound 12, 1-[[3-Bromo-1-(3-Chloro-2-pyridinyl)-1H-pyrazol-5-yl]carbonyl]-6,8-dichloro-2,3-dihydro-3-methyl-4(1H)-quinazolinone], the mortality at 250 ppm in data set [1], in data set [2], in data set [4] and in data set [3] was not below 80% in each case.
In the case of `CN1CN(C(=O)c2cc(C(F)(F)F)nn2-c2ncccc2Cl)c2c(Cl)cc(Cl)cc2C1=O` [Compound 13, 6,8-Dichloro-1-[[1-(3-Chloro-2-pyridinyl)-3-(trifluoromethyl)-1H-pyrazol-5-yl]carbonyl]-2,3-dihydro-3-methyl-4(1H)-quinazolinone], the mortality at 250 ppm in data set [1], in data set [2], in data set [4] and in data set [3] was not below 80% in each case.
For the compound `Cc1cc(Cl)cc2c1N(C(=O)c1cc(Cl)nn1-c1ncccc1Cl)CN(C(C)C)C2=O` [Compound 14, 6-Chloro-1-[[3-Chloro-1-(3-Chloro-2-pyridinyl)-1H-pyrazol-5-yl]carbonyl]-2,3-dihydro-8-methyl-3-(1-methylethyl)-4(1H)-quinazolinone], the melting point fell in the range of 219 to 220 °C.
For `Cc1cc(Cl)cc2c1N(C(=O)c1cc(Br)nn1-c1ncccc1Cl)CN(C(C)C)C2=O` [Compound 15, 1-[[3-Bromo-1-(3-Chloro-2-pyridinyl)-1H-pyrazol-5-yl]carbonyl]-6-Chloro-2,3-dihydro-8-methyl-3-(1-methylethyl)-4-(1H)-quinazolinone], the mortality at 250 ppm in data set [2] and in data set [3] was not below 80% throughout.
For `Cc1cc(Cl)cc2c1N(C(=O)c1cc(C(F)(F)F)nn1-c1ncccc1Cl)CN(C(C)C)C2=O` [Compound 16, 6-Chloro-1-[[1-(3-Chloro-2-pyridinyl)-3-(trifluoromethyl)-1H-pyrazol-5-yl]carbonyl]-2,3-dihydro-8-methyl-3-(1-methylethyl)-4(1H)-quinazolinone], the mortality at 250 ppm in data set [2] and in data set [3] was not below 80% each time.
The compound `Cc1cc(Cl)cc2c1N(C(=O)c1cc(Cl)nn1-c1ncccc1Cl)CN(C)C2=O` [Compound 17, 6-Chloro-1-[[3-Chloro-1-(3-Chloro-2-pyridinyl)-1H-pyrazol-5-yl]carbonyl]-2,3-dihydro-3,8-dimethyl-4(1H)-quinazolinone] registered a melting point of 238 to 240 °C.
The compound `Cc1cc(Cl)cc2c1N(C(=O)c1cc(Br)nn1-c1ncccc1Cl)CN(C)C2=O` [Compound 18, 1-[[3-Bromo-1-(3-Chloro-2-pyridinyl)-1H-pyrazol-5-yl]carbonyl]-6-Chloro-2,3-dihydro-3,8-dimethyl-4(1H)-quinazolinone] gave a melting point of 254 to 255 °C.
As to `Cc1cc(Cl)cc2c1N(C(=O)c1cc(C(F)(F)F)nn1-c1ncccc1Cl)CN(C)C2=O` [Compound 19, 6-Chloro-1-[[1-(3-Chloro-2-pyridinyl)-3-(tifluoromethyl)-1H-pyrazol-5-yl]carbonyl]-2,3-dihydro-3,8-dimethyl-4(1H)-quinazolinone], the mortality at 250 ppm in data set [1], in data set [2] and in data set [3] was not below 80% in each case.
`Cc1cccc2c1N(C(=O)c1cc(Cl)nn1-c1ncccc1Cl)C(C(=O)O)N(C(C)C)C2=O` (centres unmarked) [Compound 20] yielded a melting point of 143 to 190 °C.
On the same count and under the same terms, the result for `O=C1c2cc(Cl)cc(Cl)c2N(C(=O)c2cc(Cl)nn2-c2ncccc2Cl)C(c2cccnc2)N1Cl` (centres unmarked) [Compound 22] reads 135 to 156 °C.
As for `O=C1c2cc(Cl)cc(Cl)c2N(C(=O)c2cc(Cl)nn2-c2ncccc2Cl)C(c2c[nH]cn2)N1Cl` (centres unmarked) [Compound 24], the mortality at 250 ppm in data set [3] is not below 80%.
In data set [1], `O=C1NCN(C(=O)c2cc(Cl)nn2-c2ncccc2Cl)c2c(Cl)cc(Cl)cc21` [Compound 28, 6,8-Dichloro-1-[[3-Chloro-1-(3-Chloro-2-pyridinyl)-1H-pyrazol-5-yl]carbonyl]-2,3-dihydro-4(1H)-quinazolinone] returned a mortality at 250 ppm not below 80%.
As to `O=C1NCN(C(=O)c2cc(C(F)(F)F)nn2-c2ncccc2Cl)c2c(Cl)cc(Cl)cc21` [Compound 29, 6,8-Dichloro-1-[[1-(3-Chloro-2-pyridinyl)-3-(trifluoromethyl)-1H-pyrazol-5-yl]carbonyl]-2,3-dihydro-4(1H)-quinazolinone], the mortality at 250 ppm in data set [1], in data set [2] and in data set [3] was not below 80% each time.

Source of the values: patent US7241767B2, “Quinazoline(di)ones for invertebrate pest control” (E. I. du Pont de Nemours and Company, priority 2002, dated 2007).
